Data as given in ChEMBL document CHEMBL5579865, “Discovery of Broad-Spectrum Herpes Antiviral Oxazolidinone Amide Derivatives and Their Structure-Activity Relationships” (ACS Med Chem Lett, 2024).
≈ marks a conversion by molar mass, not a printed value. Calls of active or inactive are those of the source. The calls are words filed in the database; no cut-off is given here.

Columns and labels:
[1] = Inhibition of Inward-rectifier potassium channel (unknown origin); design: species or system Homo sapiens
Human alphaherpesvirus 1 [2] = assay: Antiviral activity against HSV-1 F strain infected in African green monkey Vero cells assessed as reduction in viral replication incubated for 72 hrs by qRT-PCR analysis; format: functional, organism-based
[3] = Metabolic stability in human liver microsomes assessed as intrinsic clearance; format: ADME, Microsome; conditions: read-out: CLH
[4] = target: Voltage-dependent L-type calcium channel subunit alpha-1C (Homo sapiens, UniProt Q13936); assay: Inhibition of Cav1.2 (unknown origin)
[5] = Unbound AUC in Wistar rat at 3 mg/kg,iv or 10 mg/kg,po administration; format: ADME, organism-based; conditions: in vivo
[6] = Oral bioavailability in Wistar rat at 10 mg/kg administration; format: ADME, organism-based; conditions: in vivo
Human betaherpesvirus 5 [7] = assay: Antiviral activity against HCMV AD169 infected in human MRC5 cells assessed as reduction in viral replication incubated for 72 hrs in presence of 50 % serum by qRT-PCR analysis; format: functional, organism-based
[8] = target: Sodium channel protein type 5 subunit alpha (Homo sapiens, UniProt Q14524); assay: Inhibition of Nav1.5 (unknown origin)
[9] = Solubility in PBS at pH 7; format: physicochemical
Human alphaherpesvirus 3 [10] = assay: Antiviral activity against VZV Street infected in human MeWo cells assessed as reduction in viral replication incubated for 72 hrs by qRT-PCR analysis; format: functional, organism-based
[11] = target: Voltage-gated inwardly rectifying potassium channel KCNH2 (Homo sapiens, UniProt Q12809); assay: Inhibition of hERG by patch-clamp assay; format: toxicity
[12] = Unbound volume of distribution in Wistar rat at 3 mg/kg,iv or 10 mg/kg,po administration; format: ADME, organism-based; conditions: in vivo
[13] = Inhibition of VZV DNA polymerase extracted from baculovirus infected Sf21 cells using Heterodimeric nucleic acid as substrate preincubated with enzyme for 30 mins followed by substrate and dATP addition measured after 60 mins by biotinylated UTP incorporation based AlphaLISA assay; design: species or system Human alphaherpesvirus 3
[14] = Unbound clearance in Wistar rat at 3 mg/kg,iv administration; format: ADME, organism-based; conditions: in vivo
[15] = Unbound fraction in Wistar rat plasma at 3 mg/kg,iv or 10 mg/kg,po administration; format: ADME, organism-based
Human alphaherpesvirus 2 = assay: Antiviral activity against HSV-2 G strain infected in African green monkey Vero cells assessed as reduction in viral replication incubated for 72 hrs by qRT-PCR analysis; format: functional, organism-based
[16] = Inhibition of HCMV DNA polymerase extracted from baculovirus infected Sf21 cells using Heterodimeric nucleic acid as substrate preincubated with enzyme for 30 mins followed by substrate and dATP addition measured after 60 mins by biotinylated UTP incorporation based AlphaLISA assay; design: species or system Human betaherpesvirus 5
[17] = MRT in Wistar rat at 3 mg/kg,iv or 10 mg/kg,po administration; format: ADME, organism-based; conditions: in vivo
[18] = Unbound AUC in Wistar rat at 0.05 mg/kg,iv or 10 mg/kg,po administration; format: ADME, organism-based; conditions: in vivo
[19] = MRT in Wistar rat at 0.05 mg/kg,iv or 10 mg/kg,po administration; format: ADME, organism-based; conditions: in vivo
[20] = Unbound fraction in Wistar rat plasma at 0.05 mg/kg,iv or 10 mg/kg,po administration; format: ADME, organism-based
[21] = Unbound volume of distribution in Wistar rat at 0.05 mg/kg,iv or 10 mg/kg,po administration; format: ADME, organism-based; conditions: in vivo
Human alphaherpesvirus 3 [22] = assay: Antiviral activity against VZV Street infected in human MRC5 cells assessed as reduction in viral replication incubated for 72 hrs by qRT-PCR analysis; format: functional, organism-based; conditions: Human alphaherpesvirus 3, Street, MRC5, 72 h
[23] = Unbound clearance in Wistar rat at 0.05 mg/kg,iv administration; format: ADME, organism-based; conditions: in vivo
Human betaherpesvirus 5 [24] = assay: Antiviral activity against HCMV AD169 infected in human MRC5 cells assessed as reduction in viral replication incubated for 72 hrs in presence of 10 % serum by qRT-PCR analysis; format: functional, organism-based; conditions: Human betaherpesvirus 5, AD169, MRC5, 72 h
Human alphaherpesvirus 1 [25] = assay: Antiviral activity against HSV-1 F strain intranasally infected in BALB/c mouse assessed as increase in mouse survival rate at 120 mg/kg,po bid administrated 2 days before viral infection measured after 2 days; format: functional, organism-based; conditions: time 2.0 day
Cytomegalovirus [26] = assay: Antiviral activity against Cytomegalovirus Smith intraperitoneally infected in BALB/c mouse assessed as reduction in viral burden in salivary gland at 25 mg/kg,ip qd administration measured after 10 days by plaque assay; format: functional, organism-based; conditions: time 10.0 day
Cytomegalovirus [27] = assay: Antiviral activity against Cytomegalovirus Smith intraperitoneally infected in BALB/c mouse assessed as reduction in viral burden in salivary gland at 50 mg/kg,po bid administration measured after 10 days by plaque assay; format: functional, organism-based; conditions: route ip, time 10.0 day
[28] = Human alphaherpesvirus 1, F strain, Vero, 72 h, read-out: EC50
[29] = Human betaherpesvirus 5, AD169, MRC5, 72 h, read-out: EC50
[30] = Human alphaherpesvirus 3, Street, MeWo, 72 h, read-out: EC50
[31] = Human alphaherpesvirus 2, G strain, Vero, 72 h, read-out: EC50

Sequence of Sodium channel protein type 5 subunit alpha (Q14524 whole entry): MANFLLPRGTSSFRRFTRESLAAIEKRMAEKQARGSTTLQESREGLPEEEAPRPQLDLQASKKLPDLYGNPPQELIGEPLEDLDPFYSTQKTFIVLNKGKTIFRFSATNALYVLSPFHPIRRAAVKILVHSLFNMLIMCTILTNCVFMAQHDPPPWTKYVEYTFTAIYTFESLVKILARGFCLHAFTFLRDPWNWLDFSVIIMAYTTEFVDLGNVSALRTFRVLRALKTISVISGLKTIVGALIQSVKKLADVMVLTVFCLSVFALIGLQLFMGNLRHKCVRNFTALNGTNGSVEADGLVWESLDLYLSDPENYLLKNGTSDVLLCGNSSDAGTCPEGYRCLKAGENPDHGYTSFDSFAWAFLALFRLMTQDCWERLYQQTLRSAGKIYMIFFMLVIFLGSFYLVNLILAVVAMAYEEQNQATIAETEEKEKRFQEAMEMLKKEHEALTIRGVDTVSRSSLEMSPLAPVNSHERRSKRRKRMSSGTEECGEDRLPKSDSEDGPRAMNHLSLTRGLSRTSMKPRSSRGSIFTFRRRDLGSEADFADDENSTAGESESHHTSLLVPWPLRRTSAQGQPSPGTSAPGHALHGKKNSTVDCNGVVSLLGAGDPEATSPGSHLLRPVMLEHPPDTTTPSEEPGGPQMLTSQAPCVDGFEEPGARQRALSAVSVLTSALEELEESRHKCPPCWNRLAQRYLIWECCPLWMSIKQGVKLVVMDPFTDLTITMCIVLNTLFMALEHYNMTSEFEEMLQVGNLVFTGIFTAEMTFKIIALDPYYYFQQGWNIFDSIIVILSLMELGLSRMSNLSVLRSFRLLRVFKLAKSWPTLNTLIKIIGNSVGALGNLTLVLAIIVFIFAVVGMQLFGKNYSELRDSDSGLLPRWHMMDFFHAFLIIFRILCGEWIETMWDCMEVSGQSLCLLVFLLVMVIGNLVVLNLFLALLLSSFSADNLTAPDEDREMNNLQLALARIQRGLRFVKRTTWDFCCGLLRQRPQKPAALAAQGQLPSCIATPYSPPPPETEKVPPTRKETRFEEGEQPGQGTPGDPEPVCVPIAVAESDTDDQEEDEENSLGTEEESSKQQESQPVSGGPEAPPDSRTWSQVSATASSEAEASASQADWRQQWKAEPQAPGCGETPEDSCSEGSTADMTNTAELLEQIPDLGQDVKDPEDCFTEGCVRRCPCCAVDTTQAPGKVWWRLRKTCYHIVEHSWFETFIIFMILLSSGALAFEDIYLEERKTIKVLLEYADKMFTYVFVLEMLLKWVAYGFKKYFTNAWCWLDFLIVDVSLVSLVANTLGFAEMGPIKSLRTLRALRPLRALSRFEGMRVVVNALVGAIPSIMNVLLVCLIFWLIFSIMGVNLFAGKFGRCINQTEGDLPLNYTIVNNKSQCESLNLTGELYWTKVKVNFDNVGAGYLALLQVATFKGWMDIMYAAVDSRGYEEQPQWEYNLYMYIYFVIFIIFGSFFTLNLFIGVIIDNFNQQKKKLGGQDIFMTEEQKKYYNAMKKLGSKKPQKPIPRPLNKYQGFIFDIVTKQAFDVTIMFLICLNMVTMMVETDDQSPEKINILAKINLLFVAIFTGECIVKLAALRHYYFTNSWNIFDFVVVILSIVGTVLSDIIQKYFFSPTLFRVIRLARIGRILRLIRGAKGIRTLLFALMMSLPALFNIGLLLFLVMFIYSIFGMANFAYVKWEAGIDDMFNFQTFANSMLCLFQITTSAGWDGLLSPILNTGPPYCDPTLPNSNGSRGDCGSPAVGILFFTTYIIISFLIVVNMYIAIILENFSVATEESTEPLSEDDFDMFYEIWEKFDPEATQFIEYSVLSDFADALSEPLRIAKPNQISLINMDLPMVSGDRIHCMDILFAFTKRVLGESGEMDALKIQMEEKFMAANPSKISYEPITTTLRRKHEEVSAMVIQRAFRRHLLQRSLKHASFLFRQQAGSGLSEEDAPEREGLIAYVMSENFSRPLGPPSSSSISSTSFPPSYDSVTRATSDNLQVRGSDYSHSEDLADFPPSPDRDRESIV
Sequence of Voltage-dependent L-type calcium channel subunit alpha-1C (Q13936 whole entry): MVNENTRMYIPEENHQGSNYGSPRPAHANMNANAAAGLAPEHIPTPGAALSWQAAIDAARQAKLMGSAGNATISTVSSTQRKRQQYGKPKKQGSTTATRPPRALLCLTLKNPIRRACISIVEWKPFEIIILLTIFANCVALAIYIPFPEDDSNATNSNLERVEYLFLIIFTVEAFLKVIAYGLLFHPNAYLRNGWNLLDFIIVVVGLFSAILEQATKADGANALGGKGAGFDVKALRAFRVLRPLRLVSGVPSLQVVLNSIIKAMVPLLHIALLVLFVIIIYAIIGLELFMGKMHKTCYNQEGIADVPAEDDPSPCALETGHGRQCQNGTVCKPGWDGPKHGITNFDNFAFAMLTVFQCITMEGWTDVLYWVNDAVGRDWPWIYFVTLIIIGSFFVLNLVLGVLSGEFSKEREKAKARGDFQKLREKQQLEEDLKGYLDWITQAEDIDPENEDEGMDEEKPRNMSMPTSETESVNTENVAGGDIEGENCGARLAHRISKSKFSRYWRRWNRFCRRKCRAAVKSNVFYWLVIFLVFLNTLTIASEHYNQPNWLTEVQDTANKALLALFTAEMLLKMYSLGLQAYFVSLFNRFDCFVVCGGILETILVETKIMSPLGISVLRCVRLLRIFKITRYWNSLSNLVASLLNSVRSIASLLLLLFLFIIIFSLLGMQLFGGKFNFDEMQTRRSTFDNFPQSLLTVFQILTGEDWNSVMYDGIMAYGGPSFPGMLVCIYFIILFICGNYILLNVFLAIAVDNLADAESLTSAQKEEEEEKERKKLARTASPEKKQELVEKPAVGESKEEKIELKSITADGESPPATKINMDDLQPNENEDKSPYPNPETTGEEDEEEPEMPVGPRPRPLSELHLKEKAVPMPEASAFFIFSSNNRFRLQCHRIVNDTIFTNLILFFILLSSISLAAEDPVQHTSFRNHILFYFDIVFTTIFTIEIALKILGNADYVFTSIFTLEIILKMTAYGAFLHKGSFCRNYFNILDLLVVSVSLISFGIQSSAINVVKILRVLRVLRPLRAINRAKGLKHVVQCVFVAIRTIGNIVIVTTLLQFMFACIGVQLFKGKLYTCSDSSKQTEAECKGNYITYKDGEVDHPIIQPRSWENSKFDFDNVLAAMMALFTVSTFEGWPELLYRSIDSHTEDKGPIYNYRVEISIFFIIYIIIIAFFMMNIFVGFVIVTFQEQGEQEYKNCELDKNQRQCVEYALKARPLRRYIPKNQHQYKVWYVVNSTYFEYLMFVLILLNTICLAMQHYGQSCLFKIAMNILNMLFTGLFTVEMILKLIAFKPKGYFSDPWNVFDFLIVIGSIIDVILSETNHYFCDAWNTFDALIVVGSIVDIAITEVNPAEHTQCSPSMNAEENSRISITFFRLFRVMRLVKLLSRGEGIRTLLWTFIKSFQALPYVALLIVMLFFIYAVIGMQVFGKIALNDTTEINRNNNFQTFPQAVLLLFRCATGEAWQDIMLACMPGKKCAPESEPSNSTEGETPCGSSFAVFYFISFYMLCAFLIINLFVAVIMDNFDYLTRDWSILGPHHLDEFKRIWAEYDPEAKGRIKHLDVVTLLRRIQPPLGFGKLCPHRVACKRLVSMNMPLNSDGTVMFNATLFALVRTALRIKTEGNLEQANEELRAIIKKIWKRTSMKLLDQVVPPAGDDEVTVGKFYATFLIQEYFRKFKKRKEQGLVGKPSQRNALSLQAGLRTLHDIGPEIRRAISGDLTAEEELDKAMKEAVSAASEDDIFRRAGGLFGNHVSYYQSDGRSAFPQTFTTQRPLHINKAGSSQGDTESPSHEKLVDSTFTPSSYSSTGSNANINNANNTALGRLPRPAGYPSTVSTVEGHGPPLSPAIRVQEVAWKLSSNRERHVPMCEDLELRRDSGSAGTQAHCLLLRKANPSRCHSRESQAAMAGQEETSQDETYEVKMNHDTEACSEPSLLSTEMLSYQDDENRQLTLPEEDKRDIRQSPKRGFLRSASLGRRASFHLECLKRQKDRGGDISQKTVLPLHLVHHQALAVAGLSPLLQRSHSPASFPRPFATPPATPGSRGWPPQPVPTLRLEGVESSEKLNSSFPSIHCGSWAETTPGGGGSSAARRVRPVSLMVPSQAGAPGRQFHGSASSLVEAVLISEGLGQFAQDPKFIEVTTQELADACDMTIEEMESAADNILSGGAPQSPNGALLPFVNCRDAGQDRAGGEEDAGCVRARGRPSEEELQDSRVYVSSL

Compound | EC50 (Human alphaherpesvirus 1 [2]; [28]) [nM] | EC50 (Human betaherpesvirus 5 [7]; [29]) [nM] | solubility [9] [µM] | EC50 (Human alphaherpesvirus 3 [10]; [30]) [nM] | IC50 [13] [nM] | EC50 (Human alphaherpesvirus 2; [31]) [nM] | IC50 [16] [nM] | EC50 (Human alphaherpesvirus 1 [2]) | EC50 (Human alphaherpesvirus 2) | further results
COc1cc(NC(=O)Cc2ccc(Cl)cc2)ccc1C[C@H]1COC(=O)N1 | 100 | 370 | 161 (≈ 60.3 µg/mL) | 97 | 17 | 170 | 49 | – | – | IC50 [1]: 24500 nM; CLint scaled [3]: 16 mL/min/kg; IC50 [4]: 12900 nM; fAUC [5]: 0.228 µM·h; bioavailability [6]: 27%; IC50 [8]: 10500 nM; IC50 [11]: 20000 nM; Vdu [12]: 24 L/kg; CL free [14]: 605 mL/min/kg; fraction unbound [15]: 0.027; MRT [17]: 42 min
COc1cc(NC(=O)Cc2ccc(Br)cc2)ccc1C[C@H]1COC(=O)N1 | 124 | 420 | 90 (≈ 37.7 µg/mL) | – | < 4 | 110 | < 4 | – | – | IC50 [1]: 21100 nM; CLint scaled [3]: < 16 mL/min/kg; IC50 [4]: 11100 nM; fAUC [18]: 0.002 µM·h; bioavailability [6]: 23%; MRT [19]: 54 min; IC50 [8]: 12100 nM; fraction unbound [20]: 0.022; Vdu [21]: 68 L/kg; EC50 (Human alphaherpesvirus 3 [22]): 231 nM; CL free [23]: 1168 mL/min/kg
COc1cc(NC(=O)Cc2ccc(S(F)(F)(F)(F)F)cc2)ccc1C[C@H]1COC(=O)N1 | – | – | – | – | 2220 | – | 944 | Not Active | Not Active | EC50 (Human betaherpesvirus 5 [7]): Not Active; EC50 (Human alphaherpesvirus 3 [22]): 52700 nM
COc1cc(NC(=O)C2CCc3cc(Cl)ccc32)ccc1C[C@H]1COC(=O)N1 (some centres not stated) | 249 | 560 | 57 (≈ 22.8 µg/mL) | 240 | 20 | 384 | 26 | – | – | CLint scaled [3]: 63 mL/min/kg
COc1cc(NC(=O)Cc2ccc(Cl)cc2)ncc1C[C@H]1COC(=O)N1 | – | – | < 2 | – | 6290 | – | 15900 | Not Active | Not Active | EC50 (Human alphaherpesvirus 3 [22]): > 80200 nM; EC50 (Human betaherpesvirus 5 [24]): 51200 nM
COc1nc(NC(=O)Cc2ccc(Cl)cc2)cnc1C[C@H]1COC(=O)N1 | – | – | – | – | 23800 | – | 24100 | Not Active | Not Active | EC50 (Human alphaherpesvirus 3 [22]): > 80200 nM; EC50 (Human betaherpesvirus 5 [24]): > 80200 nM
Nc1nc2c(ncn2COCCO)c(=O)[nH]1 | – | – | – | – | – | – | – | – | – | Activity (Human alphaherpesvirus 1 [25]): Active
COc1cc(NC(=O)Cc2ccc(OC(F)(F)F)cc2)ccc1C[C@H]1COC(=O)N1 | – | – | – | – | 1690 | – | 1290 | Not Active | Not Active | EC50 (Human betaherpesvirus 5 [7]): Not Active; EC50 (Human alphaherpesvirus 3 [22]): 64500 nM
O=C(Cc1ccc(Cl)cc1)Nc1ccc(CC2COC(=O)N2)cc1 (racemic) | 260 | 12800 | 7 (≈ 2.41 µg/mL) | 2130 | 180 | 3850 | 340 | – | – | –
CCOc1cc(NC(=O)Cc2ccc(Cl)cc2)ccc1C[C@H]1COC(=O)N1 | 97 | 1200 | 76 (≈ 29.6 µg/mL) | 85 | 18 | 37 | 45 | – | – | CLint scaled [3]: 29 mL/min/kg
O=C1N[C@@H](Cc2ccc3c(c2)CCN(Cc2ccc(Cl)cc2)C3=O)CO1 | – | – | – | – | 40300 | – | 27600 | Not Active | Not Active | EC50 (Human alphaherpesvirus 3 [10]): Not Active; EC50 (Human betaherpesvirus 5 [24]): 44200 nM
COc1cc(NC(=O)Cc2ccc(C#N)cc2)ccc1C[C@H]1COC(=O)N1 | 297 | 186 | – | 131 | 15 | 789 | 52 | – | – | –
CN(C(=O)Cc1ccc(Cl)cc1Cl)c1ccc(C[C@H]2COC(=O)N2)cc1 | – | – | – | – | 14100 | – | 14600 | Not Active | Not Active | EC50 (Human betaherpesvirus 5 [7]): Not Active; EC50 (Human alphaherpesvirus 3 [10]): Not Active
CN1C(=O)OC[C@@H]1Cc1ccc(NC(=O)Cc2ccc(Cl)cc2)cc1 | – | – | – | – | 1840 | – | 2550 | Not Active | Not Active | EC50 (Human betaherpesvirus 5 [7]): Not Active; EC50 (Human alphaherpesvirus 3 [10]): Not Active
COc1cc(NC(=O)Cc2ccc(Cl)cc2F)ccc1C[C@H]1COC(=O)N1 | 214 | 1130 | 153 (≈ 60.1 µg/mL) | 23 | 17 | 589 | 45 | – | – | CLint scaled [3]: 16 mL/min/kg
O=C(Cc1ccc(Cl)cc1)Nc1cc(Cl)c(C[C@H]2COC(=O)N2)cn1 | 33700 | 99000 | – | – | 2870 | 64500 | 6310 | – | – | EC50 (Human alphaherpesvirus 3 [10]): Not Active
Nc1nc2c(ncn2COC(CO)CO)c(=O)[nH]1 | – | – | – | – | – | – | – | – | – | Activity (Cytomegalovirus [26]): inactive; Activity (Cytomegalovirus [27]): inactive
O=C1N[C@@H](Cc2ccc(NS(=O)(=O)Cc3ccc(Cl)cc3)cc2)CO1 | – | – | – | – | 12700 | – | 104000 | Not Active | Not Active | EC50 (Human betaherpesvirus 5 [7]): Not Active; EC50 (Human alphaherpesvirus 3 [10]): Not Active
O=C1N[C@@H](Cc2ccc3c(c2)OCC(Cc2ccc(Cl)cc2)N3)CO1 (some centres not stated) | 3120 | 13100 | – | 3060 | 350 | 5240 | 490 | – | – | –
COc1nc(NC(=O)Cc2ccc(Cl)cc2)ccc1C[C@H]1COC(=O)N1 | 70 | 249 | – | 46 | 15 | 85 | 44 | – | – | IC50 [1]: 14200 nM; IC50 [4]: 13500 nM; fAUC [5]: 0.299 µM·h; bioavailability [6]: 62%; IC50 [8]: 10000 nM; IC50 [11]: 16000 nM; Vdu [12]: 15 L/kg; CL free [14]: 444 mL/min/kg; fraction unbound [15]: 0.025; MRT [17]: 36 min
COc1cc(NC(=O)Cc2c(F)cc(Cl)cc2F)ccc1C[C@H]1COC(=O)N1 | 564 | 614 | 7 (≈ 2.88 µg/mL) | 182 | 46 | 874 | 69 | – | – | –
O=C(Nc1ccc(Cl)cc1)Nc1ccc(C[C@H]2COC(=O)N2)cc1 | – | – | – | – | 210 | – | 480 | Not Active | Not Active | EC50 (Human alphaherpesvirus 3 [10]): Not Active; EC50 (Human betaherpesvirus 5 [24]): 1110 nM
COc1cc(NC(=O)Cc2ccc(C#N)c(F)c2)ccc1C[C@H]1COC(=O)N1 | 494 | 141 | – | 265 | 28 | 551 | 46 | – | – | –
COc1cc(NC(=O)Cc2ccc(Cl)cc2Cl)ccc1C[C@H]1COC(=O)N1 | 198 | 349 | 28 (≈ 11.5 µg/mL) | 154 | 12 | 222 | 16 | – | – | IC50 [1]: 20900 nM; CLint scaled [3]: 20 mL/min/kg; IC50 [4]: 9600 nM; fAUC [18]: 0.003 µM·h; MRT [19]: 42 min; IC50 [8]: 8200 nM; fraction unbound [20]: 0.022; Vdu [21]: 33 L/kg; CL free [23]: 720 mL/min/kg
